# Experimental data from US20170027902A1, “Use of a Composition Comprising a Flavonol, A Flavonoid, and a Fatty Acid in the Treatment of Oxidative Injuries Due to Mitochondrial Dysfunction” (priority 2014, published 2017).
# Tested on: cortical neurons
# Experiment: OGD, viable neurons counted by FACS (Annexin V / 7AAD)
# Format: cell-based, mouse
# Conditions: 0.03 and 0.1 μg/ml (0.1 and 0.3 μM); 24 hrs pretreatment; 90 min OGD (vehicle approximately 45%)
# Method: Embryonic day 16 timed pregnant CD1 out-bred mice were obtained from Charles River Laboratories (Charles River; QC, Canada). Primary cortical neuron cultures were prepared from cerebral cortices of wild type (WT) CD1 mouse embryos as described previously, with the following modifications. Pregnant CD1 females were heavily anaesthetized with isoflurane vapor (Benson Medical Industries, Inc., Markham, ON) before being euthanized by decapitation. The embryonic day 16 (E16) fetuses were immediately removed from the sacrificed pregnant females by cesarean section and placed in ice-cold Hank's Balanced Salt Solution (HBSS) (GIBCO; Invitrogen, Amarillo, Calif.). The meninges were removed from the brains and cortices were isolated under a dissecting microscope. […] The trypsin and inhibitor solutions were discarded and each cell pellet was suspended in 1 ml of cortical neuron plating medium (Neurobasal medium (Invitrogen, Amarillo, Calif.) with 10% fetal bovine serum (GIBCO; Invitrogen; Amarillo, Calif.), 2% B27 supplement, 1 mM L-glutamine, and 1% Gentamycin (Invitrogen; Amarillo, Calif.), triturated 10 times and counted using trypan blue exclusion and a hemocytometer. Cortical neurons were plated in 96-well plates (Corning; Lowell, Mass.) that were pre-coated with poly-D-lysine (PDL; Sigma-Aldrich; Oakville, ON) according to the procedure described by the manufacturer. […]
row,SMILES,"neuronal survival (viable neurons relative to control, no OGD) [%]"
1,"Oc1cc(O)c2c(c1)O[C@H](c1ccc(O)c(O)c1)[C@H](O)C2 [E, (2R,3R)-2-(3,4-dihydroxyphenyl)-3,4-dihydro-2H-chromene-3,5,7-triol]",55
2,O=c1c(O)c(-c2ccc(O)c(O)c2)oc2cc(O)cc(O)c12 [Q],55
